According to PubChem BioAssay (NCI):
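Each compound was tested at five concentrations against cells in 96-well plates for 48 hours. Here, GI50 denotes the concentration required for 50% inhibition of growth. TGI: concentration producing complete growth inhibition.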

How the values were obtained:
Experiment in all cases: DTP human tumour cell line panel, 48 h
[1] = test system: A549 NSCLC
[2] = test system: HS 578T breast
[3] = test system: KM12 colon
[4] = test system: MCF7 breast
[5] = test system: MDA-MB-231 breast
[6] = test system: RXF 393 renal
[7] = test system: SK-OV-3 ovarian
[8] = test system: SW-620 colon
[9] = test system: UACC-62 melanoma
[10] = test system: UO-31 renal

Structure (SMILES): O=C1Nc2cc(Cl)ccc2Oc2cc(Oc3ccccc3)ccc21
- GI50 [1]: 4.66 µM
- TGI [1]: 33.8 µM
- GI50 [2]: 3.31 µM
- TGI [2]: 27.5 µM
- GI50 [3]: 2.09 µM
- TGI [3]: 14 µM
- GI50 [4]: 3.39 µM
- TGI [4]: 18.3 µM
- GI50 [5]: 5.5 µM
- TGI [5]: 51.4 µM
- GI50 [6]: 2.09 µM
- TGI [6]: 9.87 µM
- GI50 [7]: 4.66 µM
- TGI [7]: 17.4 µM
- GI50 [8]: 2.73 µM
- TGI [8]: 16.9 µM
- GI50 [9]: 4.15 µM
- TGI [9]: 91.3 µM
- GI50 [10]: 6.52 µM
- TGI [10]: > 100 µM

Structure (SMILES): COc1ccc2nc3cccc([N+](=O)[O-])c3c(NCCN(CCO)CCO)c2c1
- GI50 [1]: 0.0257 µM
- TGI [1]: 0.403 µM
- GI50 [2]: 0.0647 µM
- TGI [2]: 0.272 µM
- GI50 [3]: 0.0367 µM
- TGI [3]: 0.202 µM
- GI50 [4]: 0.0138 µM
- TGI [4]: 0.548 µM
- GI50 [5]: 0.0385 µM
- TGI [5]: 0.42 µM
- GI50 [6]: 0.0155 µM
- TGI [6]: 0.032 µM
- GI50 [7]: 0.106 µM
- TGI [7]: 0.771 µM
- GI50 [8]: 0.0139 µM
- TGI [8]: 0.619 µM
- GI50 [9]: 0.0311 µM
- TGI [9]: 0.109 µM
- GI50 [10]: 0.0539 µM
- TGI [10]: 0.184 µM

Structure (SMILES): O=C(CSc1nc2ccc([N+](=O)[O-])cc2[nH]1)Nc1cccc(Cl)c1
- GI50 [1]: 2.72 µM
- TGI [1]: 15.9 µM
- GI50 [2]: 2.95 µM
- TGI [2]: 19.4 µM
- GI50 [3]: 3.1 µM
- TGI [3]: 13.8 µM
- GI50 [4]: 2.41 µM
- TGI [4]: 10.5 µM
- GI50 [5]: 2.12 µM
- TGI [5]: 6.55 µM
- GI50 [6]: 2.39 µM
- TGI [6]: 8.49 µM
- GI50 [7]: 2.03 µM
- TGI [7]: 6.45 µM
- GI50 [8]: 3.38 µM
- TGI [8]: 19.8 µM
- GI50 [9]: 1.59 µM
- TGI [9]: 10.3 µM
- GI50 [10]: 1.97 µM
- TGI [10]: 9.99 µM

Structure (SMILES): CCOC(=O)c1ccc2c(c1)[n+](=O)c(C(=O)c1ccc3ccccc3c1)c(C(F)(F)F)n2[O-]
- GI50 [1]: 1.89 µM
- TGI [1]: 3.62 µM
- GI50 [2]: 1.57 µM
- TGI [2]: 3.62 µM
- GI50 [3]: 1.25 µM
- TGI [3]: 2.51 µM
- GI50 [4]: 0.901 µM
- TGI [4]: 2.42 µM
- GI50 [5]: 1.58 µM
- TGI [5]: 3.15 µM
- GI50 [6]: 1.73 µM
- TGI [6]: 3.26 µM
- GI50 [7]: 1.64 µM
- TGI [7]: 2.99 µM
- GI50 [8]: 1.52 µM
- TGI [8]: 2.92 µM
- GI50 [9]: 1.52 µM
- TGI [9]: 2.93 µM
- GI50 [10]: 1.3 µM
- TGI [10]: 2.57 µM

Structure (SMILES): C[As](C)Sc1ccnc(S[As](C)C)n1
- GI50 [1]: 8.51 µM
- TGI [1]: > 41.7 µM
- GI50 [2]: 1.99 µM
- TGI [2]: 17.7 µM
- GI50 [3]: 9.52 µM
- TGI [3]: > 51.9 µM
- GI50 [4]: 3.23 µM
- TGI [4]: > 35.1 µM
- GI50 [5]: 2.62 µM
- TGI [5]: 15.8 µM
- GI50 [6]: 3.2 µM
- TGI [6]: 20.1 µM
- GI50 [7]: 12.4 µM
- TGI [7]: > 100 µM
- GI50 [8]: 1.4 µM
- TGI [8]: 19.5 µM
- GI50 [9]: 2.38 µM
- TGI [9]: 15.6 µM
- GI50 [10]: 3.73 µM
- TGI [10]: 26.9 µM

Structure (SMILES): COc1ccc(S(=O)(=O)N2CCN(C(=O)OCc3ccccc3)CC2C(=O)NO)cc1 (stereo not given)
- GI50 [1]: > 25 µM
- TGI [1]: > 25 µM
- GI50 [2]: > 25 µM
- TGI [2]: > 25 µM
- GI50 [3]: > 25 µM
- TGI [3]: > 25 µM
- GI50 [4]: 13 µM
- TGI [4]: > 25 µM
- GI50 [5]: > 25 µM
- TGI [5]: > 25 µM
- GI50 [6]: > 25 µM
- TGI [6]: > 25 µM
- GI50 [7]: > 25 µM
- TGI [7]: > 25 µM
- GI50 [8]: > 25 µM
- TGI [8]: > 25 µM
- GI50 [9]: > 25 µM
- TGI [9]: > 25 µM
- GI50 [10]: 17 µM
- TGI [10]: > 25 µM
